According to ChEMBL document CHEMBL3351390, “DNA repair and redox activities and inhibitors of apurinic/apyrimidinic endonuclease 1/redox effector factor 1 (APE1/Ref-1): a comparative analysis and their scope and limitations toward anticancer drug development” (J Med Chem, 2014):

The compounds below were run against DNA repair nuclease/redox regulator APEX1 (Homo sapiens, UniProt P27695) (assay: Inhibition of human APE1 after 25 mins by fluorescence assay).
Sequence of DNA repair nuclease/redox regulator APEX1 (P27695 whole entry): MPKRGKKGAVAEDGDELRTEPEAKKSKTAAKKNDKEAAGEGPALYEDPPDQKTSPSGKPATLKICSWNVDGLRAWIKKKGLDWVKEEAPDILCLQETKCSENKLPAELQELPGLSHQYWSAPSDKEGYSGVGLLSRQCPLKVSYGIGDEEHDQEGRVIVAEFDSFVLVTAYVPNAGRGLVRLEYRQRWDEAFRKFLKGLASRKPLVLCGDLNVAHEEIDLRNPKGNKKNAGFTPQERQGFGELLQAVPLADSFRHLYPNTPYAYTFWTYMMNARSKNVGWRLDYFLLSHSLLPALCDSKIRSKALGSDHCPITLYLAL

Row | Structure (SMILES) | IC50 [µM]
1 | Nc1c(S(=O)(=O)O)cc(Nc2ccc(Nc3nc(Cl)nc(Nc4ccc(S(=O)(=O)O)cc4)n3)c(S(=O)(=O)O)c2)c2c1C(=O)c1ccccc1C2=O | 0.25
2 | O=C(O)c1cc2cccc([N+](=O)[O-])c2[nH]1 | 3
3 | O=C(O)C1=CC(=C(c2ccc(O)c(C(=O)O)c2)c2ccc(O)c(C(=O)O)c2)C=CC1=O [AURINTRICARBOXYLIC ACID] | 10
